{"source": "paper PMC8313326", "about": "“Phytochemical Analysis and Evaluation of Biological Activity of Lawsonia inermis Seeds Related to Alzheimer's Disease” (Evidence-based Complementary and Alternative Medicine : eCAM, 2021)", "key": {"[1]": {"target": "T1, butyrylcholinesterase (BChE, E.C. 3.1.1.8) (Equus caballus, UniProt P81908)", "T1 construct": "butyrylcholinesterase (BChE, E.C. 3.1.1.8, from equine serum); purchased Sigma-Aldrich; host or cells: equine serum", "T1 sequence (P81908 whole entry)": "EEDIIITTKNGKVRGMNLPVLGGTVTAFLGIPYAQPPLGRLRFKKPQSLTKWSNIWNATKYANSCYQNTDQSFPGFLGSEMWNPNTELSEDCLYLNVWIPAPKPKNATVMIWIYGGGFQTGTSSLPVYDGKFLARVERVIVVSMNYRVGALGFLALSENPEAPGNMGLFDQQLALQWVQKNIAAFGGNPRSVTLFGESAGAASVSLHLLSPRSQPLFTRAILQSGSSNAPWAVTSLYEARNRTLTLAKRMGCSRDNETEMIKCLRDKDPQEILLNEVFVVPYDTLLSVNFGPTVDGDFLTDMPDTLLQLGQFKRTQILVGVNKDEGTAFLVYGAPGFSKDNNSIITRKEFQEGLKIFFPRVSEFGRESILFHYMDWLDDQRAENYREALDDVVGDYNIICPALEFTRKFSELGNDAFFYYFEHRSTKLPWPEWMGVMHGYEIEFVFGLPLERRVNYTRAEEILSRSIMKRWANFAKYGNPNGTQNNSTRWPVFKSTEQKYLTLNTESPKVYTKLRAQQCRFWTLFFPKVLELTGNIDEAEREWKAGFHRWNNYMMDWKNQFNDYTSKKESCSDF", "test": "biochemical", "excerpt": "(§1) Acetylcholinesterase (AChE, E.C. 3.1.1.7, Type V-S, lyophilized powder, from electric eel, 1000 units), butyrylcholinesterase (BChE, E.C. 3.1.1.8, from equine serum), acetylthiocholine iodide (ATCI), and 5,5-dithiobis-2-nitrobenzoic acid (DTNB) were purchased from Sigma-Aldrich. Potassium dihydrogen phosphate, dipotassium hydrogen phosphate, potassium hydroxide, and sodium hydrogen carbonate were obtained from Fluka. Solvents for the extraction and column chromatography (CC) were of technical grade and redistilled before use. Deuterated solvents (100 atom % D) were obtained from Sigma-Aldrich.\n(§2) In vitro anti-ChEI activity was performed against acetylcholinesterase (AChE, E.C. 3.1.1.7, Type V-S, lyophilized powder, from electric eel, 1000 units) and butyrylcholinesterase (BChE, E.C. 3.1.1.8, from equine serum) using the modified Ellman's method. […] Each well consisted of 50 μL potassium phosphate buffer (KH2PO4/K2HPO4, 0.1 M, pH 8), 25 μL prepared sample as described above, and AChE enzyme (25 μL) with a final concentration of 0.22 units/mL in the buffer. They were preincubated for 15 min at room temperature, and then, 125 μL DTNB (3 mM in buffer) was added to the mixture. […] In parallel, a blank containing all components without enzyme was used in order to account for the nonenzymatic reaction. […] The IC50 values were determined graphically from log concentration vs. % of inhibition curves. All experiments were performed in triplicate. BChE inhibition assay was performed in the same method."}, "[2]": {"target": "T2, acetylcholinesterase (AChE, E.C. 3.1.1.7, Type V-S) (Electrophorus electricus, UniProt O42275)", "T2 construct": "Type V-S, lyophilized powder, from electric eel; purchased Sigma-Aldrich; host or cells: electric eel", "T2 sequence (O42275 24-633)": "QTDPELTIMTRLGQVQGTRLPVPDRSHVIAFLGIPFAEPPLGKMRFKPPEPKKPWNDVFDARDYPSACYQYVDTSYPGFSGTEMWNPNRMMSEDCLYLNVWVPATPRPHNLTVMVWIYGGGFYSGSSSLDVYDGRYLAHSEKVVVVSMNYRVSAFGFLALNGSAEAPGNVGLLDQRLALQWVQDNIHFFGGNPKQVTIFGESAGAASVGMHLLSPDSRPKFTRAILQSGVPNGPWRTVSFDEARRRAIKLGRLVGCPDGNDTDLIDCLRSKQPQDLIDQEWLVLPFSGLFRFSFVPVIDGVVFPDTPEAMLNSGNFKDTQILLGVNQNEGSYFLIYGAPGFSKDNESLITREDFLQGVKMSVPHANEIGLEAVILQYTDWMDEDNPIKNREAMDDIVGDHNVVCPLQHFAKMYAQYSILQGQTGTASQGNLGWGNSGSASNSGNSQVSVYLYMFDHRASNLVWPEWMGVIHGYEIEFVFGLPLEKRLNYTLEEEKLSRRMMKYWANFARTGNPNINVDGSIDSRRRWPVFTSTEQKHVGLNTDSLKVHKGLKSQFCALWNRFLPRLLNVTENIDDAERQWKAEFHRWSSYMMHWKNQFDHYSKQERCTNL", "test": "biochemical", "excerpt": "as §1, §2"}, "acetylcholinesterase": {"tested_on": "acetylcholinesterase", "settings": "cited from earlier work"}, "BChE": {"tested_on": "BChE", "design": "method as in PMID 24354178", "settings": "cited from earlier work"}, "[3]": {"test": "Antioxidant activity by DPPH test", "settings": "30 min, room temperature, dark, 517 nm", "method": "Several concentrations of the test fraction in MeOH were prepared. Aliquots of different concentrations of the fraction (1 mL) were added to the DPPH methanolic solution (1.0 mL, 0.1 mM), and the mixtures were shaken vigorously and left for 30 min at room temperature in the dark.\nIn the same procedure, butylated hydroxyanisole (BHA) was used as the positive control. The DPPH radical scavenging activity of the fractions was expressed as IC50 (μg/mL), which is obtained from linear regression plot between concentrations of the test fractions and percent inhibitions."}}, "note": "Where two headings read alike, the source gives them in different places."}
{"compound": "CC(=O)O[C@H]1CC[C@@]2(C)C(CC[C@]3(C)C2CC=C2C4CC(C)(C)CC[C@]4(C(=O)O)CC[C@]23C)C1(C)C", "note": "(stereo partly drawn) [compound 2, 3-O-β-Acetyloleanolic acid]", "values": [{"measurement": "IC50", "setting": "[1]", "result": "77.13 ± 0.01", "unit": "µM"}, {"measurement": "IC50", "setting": "[2]", "result": "> 100", "unit": "µM"}]}
{"compound": "CN1CC[C@@]23C=C[C@H](O)C[C@@H]2Oc2c(O)ccc(c23)C1", "note": "[sanguinine]", "values": [{"measurement": "inhibitory activity against acetylcholinesterase", "setting": "acetylcholinesterase", "result": "significant inhibitory activity"}]}
{"compound": "COc1ccc(C(C)=O)c(O)c1", "note": "[paeonol]", "values": [{"measurement": "BChE inhibitory activity", "setting": "BChE", "result": "selective BChE inhibitory activity"}]}
{"compound": "CNC(=O)Oc1ccc2c(c1)[C@]1(C)CCN(C)[C@@H]1N2C", "note": "[physostigmine]", "values": [{"measurement": "inhibitory activity against acetylcholinesterase", "setting": "acetylcholinesterase", "result": "significant inhibitory activity"}]}
{"compound": "COc1ccc(O)c(C(C)(C)C)c1", "note": "[BHA, butylated hydroxyanisole]", "values": [{"measurement": "DPPH free radical scavenging IC50", "setting": "[3]", "result": "3.79 ± 0.37", "unit": "µg/mL"}]}
{"compound": "CC1(C)CC[C@]2(C(=O)O)CC[C@]3(C)C(=CCC4[C@@]5(C)CC[C@H](OC(=O)/C=C/c6ccc(O)cc6)C(C)(C)C5CC[C@]43C)C2C1", "note": "(stereo partly drawn) [compound 3, 3-O-(Z)-Coumaroyl oleanolic acid]", "values": [{"measurement": "IC50", "setting": "[1]; isolated compounds, mean ± SD, three independent experiments, read-out: BChE IC50", "result": "> 100", "unit": "µM"}, {"measurement": "IC50", "setting": "[2]; isolated compounds, mean ± SD, three independent experiments, read-out: AChE IC50", "result": "> 100", "unit": "µM"}]}
{"compound": "C=C(C)[C@@H]1CC[C@]2(C(=O)O)CC[C@]3(C)[C@H](CC[C@@H]4[C@@]5(C)CC[C@H](O)C(C)(C)[C@@H]5CC[C@]43C)[C@@H]12", "note": "[compound 4, Betulinic acid]", "values": [{"measurement": "IC50", "setting": "[1]", "result": "> 100", "unit": "µM"}, {"measurement": "IC50", "setting": "[2]", "result": "> 100", "unit": "µM"}]}
{"compound": "CC1(C)CC[C@]2(C(=O)O)CC[C@]3(C)C(=CC[C@@H]4[C@@]5(C)CC[C@H](O)C(C)(C)[C@@H]5CC[C@]43C)[C@@H]2C1", "note": "[compound 5, Oleanolic acid]", "values": [{"measurement": "IC50", "setting": "[1]; BChE IC50, isolated compounds, mean ± SD, three independent experiments", "result": "72.2 ± 0.42", "unit": "µM"}]}
{"compound": "hydroperoxy-24-vinylcholesterol", "values": [{"measurement": "BChE inhibitory activity", "setting": "BChE", "result": "selective BChE inhibitory activity"}]}
{"compound": "COc1ccc2c3c1O[C@H]1C[C@@H](O)C=C[C@@]31CCN(C)C2", "note": "[galantamine]", "values": [{"measurement": "inhibitory activity against acetylcholinesterase", "setting": "acetylcholinesterase", "result": "significant inhibitory activity"}]}
{"compound": "CC[C@H](CC[C@@H](C)[C@H]1CC[C@H]2[C@@H]3CC=C4C[C@@H](O)CC[C@]4(C)[C@H]3CC[C@]12C)C(C)C", "note": "[compound 1, β-Sitosterol]", "values": [{"measurement": "IC50", "setting": "[1]", "result": "> 100", "unit": "µM"}, {"measurement": "IC50", "setting": "[2]", "result": "> 100", "unit": "µM"}]}
